Test results as given in PubChem BioAssay AID2060494 (Molecular Pharmacology Branch, DTP, NCI, 2025).

Tested on: 435261-313-R-J1-PDC complex spheroid viability
Assay: Anticancer human tumor 435261-313-R-J1-PDC patient-derived colon adenocarcinoma cell line growth inhibition [GQUAD]
Conditions: for IC50: curve of first compound; for viability, T/C: stronger effect = lower value
Outline: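 Tumor cells were grown as complex spheroids with HUVEC endothelial cells and mesenchymal stem cells as stroma. G-quadruplex stabilizers were combined with targeted agents over half-log dilutions from near the clinical Cmax, or from 10 microM.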

[1] = second compound 0.0316 µM, first compound 0.0316 µM
[2] = second compound 0.0316 µM, first compound 0.1 µM
[3] = second compound 0.0316 µM, first compound 0.316 µM
[4] = second compound 0.0316 µM, first compound 1 µM
[5] = second compound 0.0316 µM, first compound 3.16 µM
[6] = second compound 0.0316 µM, first compound 10 µM
[7] = second compound 0.1 µM, first compound 0.0316 µM
[8] = second compound 0.1 µM, first compound 0.1 µM
[9] = second compound 0.1 µM, first compound 0.316 µM
[10] = second compound 0.1 µM, first compound 1 µM
[11] = second compound 0.1 µM, first compound 3.16 µM
[12] = second compound 0.1 µM, first compound 10 µM
[13] = second compound 0.316 µM, first compound 0.0316 µM
[14] = second compound 0.316 µM, first compound 0.1 µM
[15] = second compound 0.316 µM, first compound 0.316 µM
[16] = second compound 0.316 µM, first compound 1 µM
[17] = second compound 0.316 µM, first compound 3.16 µM
[18] = second compound 0.316 µM, first compound 10 µM
[19] = second compound 1 µM, first compound 0.0316 µM
[20] = second compound 1 µM, first compound 0.1 µM
[21] = second compound 1 µM, first compound 0.316 µM
[22] = second compound 1 µM, first compound 1 µM
[23] = second compound 1 µM, first compound 3.16 µM
[24] = second compound 1 µM, first compound 10 µM
[25] = second compound 3.16 µM, first compound 0.0316 µM
[26] = second compound 3.16 µM, first compound 0.1 µM
[27] = second compound 3.16 µM, first compound 0.316 µM
[28] = second compound 3.16 µM, first compound 1 µM
[29] = second compound 3.16 µM, first compound 3.16 µM
[30] = second compound 3.16 µM, first compound 10 µM
[31] = second compound 10 µM, first compound 0.0316 µM
[32] = second compound 10 µM, first compound 0.1 µM
[33] = second compound 10 µM, first compound 0.316 µM
[34] = second compound 10 µM, first compound 1 µM
[35] = second compound 10 µM, first compound 3.16 µM
[36] = second compound 10 µM, first compound 10 µM
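Note: spheroids exposed to the agents for seven days before readout.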
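Throughout, for viability, T/C: percent of vehicle control viability with DMSO wells as 100%.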

C=CC(=O)N1CCN(c2nc(=O)n(-c3c(C)ccnc3C(C)C)c3nc(-c4c(O)cccc4F)c(F)cc23)C(C)C1 (stereo not drawn) + Cc1cnc(CNC(=O)c2c(=O)c3ccc(N4CCCN(C)CC4)nc3n3c2sc2ccccc23)cn1
IC50 (second compound 0.0316 µM): > 10000 nM | IC50 (second compound 0.1 µM): > 10000 nM | IC50 (second compound 0.316 µM): > 10000 nM | IC50 (second compound 1 µM): < 31.6 nM | IC50 (second compound 3.16 µM): < 31.6 nM | IC50 (second compound 10 µM): < 31.6 nM | viability, T/C [1]: 76.1% | viability, T/C [2]: 59.5% | viability, T/C [3]: 86.8% | viability, T/C [4]: 68.1% | viability, T/C [5]: 98.3% | viability, T/C [6]: 67.4% | viability, T/C [7]: 47.9% | viability, T/C [8]: 63.3% | viability, T/C [9]: 56.6% | viability, T/C [10]: 63.3% | viability, T/C [11]: 63.8% | viability, T/C [12]: 65.7% | viability, T/C [13]: 56.4% | viability, T/C [14]: 59.3% | viability, T/C [15]: 60% | viability, T/C [16]: 52% | viability, T/C [17]: 71.1% | viability, T/C [18]: 65.1% | viability, T/C [19]: 37.4% | viability, T/C [20]: 39.1% | viability, T/C [21]: 48% | viability, T/C [22]: 47.5% | viability, T/C [23]: 48.8% | viability, T/C [24]: 47.9% | viability, T/C [25]: 19.2% | viability, T/C [26]: 21.6% | viability, T/C [27]: 24.2% | viability, T/C [28]: 29.7% | viability, T/C [29]: 23.5% | viability, T/C [30]: 14.3% | viability, T/C [31]: 0.21% | viability, T/C [32]: 0.22% | viability, T/C [33]: 0.17% | viability, T/C [34]: 0.25% | viability, T/C [35]: 0.22% | viability, T/C [36]: 0.16%

Cc1cccc(N(C)C(=O)C2C(O)CCN2c2nc(C)cc(C(F)(F)F)c2C#N)c1 (stereo not drawn) + Cc1cnc(CNC(=O)c2c(=O)c3ccc(N4CCCN(C)CC4)nc3n3c2sc2ccccc23)cn1
IC50 (second compound 0.0316 µM): > 10000 nM | IC50 (second compound 0.1 µM): > 10000 nM | IC50 (second compound 0.316 µM): > 10000 nM | IC50 (second compound 1 µM): < 31.6 nM | IC50 (second compound 3.16 µM): < 31.6 nM | IC50 (second compound 10 µM): < 31.6 nM | viability, T/C [1]: 72.9% | viability, T/C [2]: 76.9% | viability, T/C [3]: 73.3% | viability, T/C [4]: 63.7% | viability, T/C [5]: 75.8% | viability, T/C [6]: 81.6% | viability, T/C [7]: 59.2% | viability, T/C [8]: 66% | viability, T/C [9]: 52.2% | viability, T/C [10]: 56.3% | viability, T/C [11]: 61.5% | viability, T/C [12]: 62.3% | viability, T/C [13]: 49.1% | viability, T/C [14]: 52.5% | viability, T/C [15]: 65.3% | viability, T/C [16]: 51.7% | viability, T/C [17]: 51.1% | viability, T/C [18]: 53% | viability, T/C [19]: 42% | viability, T/C [20]: 53% | viability, T/C [21]: 47.9% | viability, T/C [22]: 51.6% | viability, T/C [23]: 48.6% | viability, T/C [24]: 45.3% | viability, T/C [25]: 16.1% | viability, T/C [26]: 21% | viability, T/C [27]: 17% | viability, T/C [28]: 17.3% | viability, T/C [29]: 12.8% | viability, T/C [30]: 9.97% | viability, T/C [31]: 0.21% | viability, T/C [32]: 5.23% | viability, T/C [33]: 6.24% | viability, T/C [34]: 0.26% | viability, T/C [35]: 0.33% | viability, T/C [36]: 0.25%

Cn1ncnc1[C@H]1c2n[nH]c(=O)c3cc(F)cc(c23)N[C@@H]1c1ccc(F)cc1 + Cc1cnc(CNC(=O)c2c(=O)c3ccc(N4CCCN(C)CC4)nc3n3c2sc2ccccc23)cn1
IC50 (second compound 0.0316 µM): > 316 nM | IC50 (second compound 0.1 µM): > 316 nM | IC50 (second compound 0.316 µM): > 316 nM | IC50 (second compound 1 µM): < 0.999 nM | IC50 (second compound 3.16 µM): < 0.999 nM | IC50 (second compound 10 µM): < 0.999 nM | viability, T/C (second compound 0.0316 µM, first compound 0.000999 µM): 82.1% | viability, T/C (second compound 0.0316 µM, first compound 0.00316 µM): 60.3% | viability, T/C (second compound 0.0316 µM, first compound 0.00999 µM): 66.2% | viability, T/C [1]: 60.9% | viability, T/C (second compound 0.0316 µM, first compound 0.0999 µM): 72.1% | viability, T/C [3]: 62.9% | viability, T/C (second compound 0.1 µM, first compound 0.000999 µM): 59.5% | viability, T/C (second compound 0.1 µM, first compound 0.00316 µM): 60.5% | viability, T/C (second compound 0.1 µM, first compound 0.00999 µM): 47.1% | viability, T/C [7]: 57% | viability, T/C (second compound 0.1 µM, first compound 0.0999 µM): 59.4% | viability, T/C [9]: 62.4% | viability, T/C (second compound 0.316 µM, first compound 0.000999 µM): 58.9% | viability, T/C (second compound 0.316 µM, first compound 0.00316 µM): 57.8% | viability, T/C (second compound 0.316 µM, first compound 0.00999 µM): 55.4% | viability, T/C [13]: 53.1% | viability, T/C (second compound 0.316 µM, first compound 0.0999 µM): 49.6% | viability, T/C [15]: 53.4% | viability, T/C (second compound 1 µM, first compound 0.000999 µM): 42.4% | viability, T/C (second compound 1 µM, first compound 0.00316 µM): 46.8% | viability, T/C (second compound 1 µM, first compound 0.00999 µM): 59.2% | viability, T/C [19]: 49.8% | viability, T/C (second compound 1 µM, first compound 0.0999 µM): 47.1% | viability, T/C [21]: 46.9% | viability, T/C (second compound 3.16 µM, first compound 0.000999 µM): 17.9% | viability, T/C (second compound 3.16 µM, first compound 0.00316 µM): 18.4% | viability, T/C (second compound 3.16 µM, first compound 0.00999 µM): 12.7% | viability, T/C [25]: 23% | viability, T/C (second compound 3.16 µM, first compound 0.0999 µM): 20.4% | viability, T/C [27]: 11.9% | viability, T/C (second compound 10 µM, first compound 0.000999 µM): 0.24% | viability, T/C (second compound 10 µM, first compound 0.00316 µM): 11.3% | viability, T/C (second compound 10 µM, first compound 0.00999 µM): 0.24% | viability, T/C [31]: 0.21% | viability, T/C (second compound 10 µM, first compound 0.0999 µM): 0.18% | viability, T/C [33]: 9.04%

O=C(c1cc(Cc2n[nH]c(=O)c3ccccc23)ccc1F)N1CCN(C(=O)C2CC2)CC1 + Cc1cnc(CNC(=O)c2c(=O)c3ccc(N4CCCN(C)CC4)nc3n3c2sc2ccccc23)cn1
IC50 (second compound 0.0316 µM): > 10000 nM | IC50 (second compound 0.1 µM): > 10000 nM | IC50 (second compound 0.316 µM): > 10000 nM | IC50 (second compound 1 µM): < 31.6 nM | IC50 (second compound 3.16 µM): < 31.6 nM | IC50 (second compound 10 µM): < 31.6 nM | viability, T/C [1]: 76% | viability, T/C [2]: 60.9% | viability, T/C [3]: 66.3% | viability, T/C [4]: 68.2% | viability, T/C [5]: 84% | viability, T/C [6]: 77.7% | viability, T/C [7]: 65.2% | viability, T/C [8]: 65.1% | viability, T/C [9]: 58.3% | viability, T/C [10]: 62% | viability, T/C [11]: 64% | viability, T/C [12]: 62.1% | viability, T/C [13]: 59.4% | viability, T/C [14]: 53.8% | viability, T/C [15]: 58.7% | viability, T/C [16]: 59.6% | viability, T/C [17]: 53% | viability, T/C [18]: 52.2% | viability, T/C [19]: 38.6% | viability, T/C [20]: 45.9% | viability, T/C [21]: 38.1% | viability, T/C [22]: 42.7% | viability, T/C [23]: 55.9% | viability, T/C [24]: 37.6% | viability, T/C [25]: 26.4% | viability, T/C [26]: 9.89% | viability, T/C [27]: 25.5% | viability, T/C [28]: 15.3% | viability, T/C [29]: 27.3% | viability, T/C [30]: 20.5% | viability, T/C [31]: 0.23% | viability, T/C [32]: 0.23% | viability, T/C [33]: 0.21% | viability, T/C [34]: 0.23% | viability, T/C [35]: 0.22% | viability, T/C [36]: 0.23%
